Data: patent US20150105386A1, “4-(4-PYRIDINYL)-BENZAMIDES AND THEIR USE AS ROCK ACTIVITY MODULATORS” (AbbVie Deutschland GmbH & Co KG, priority 2007, published 2015)
pKi: −log10 of the molar value.

Target: T1, hROCK-2 (Homo sapiens, UniProt O75116)
T1 construct: purchased Upstate
Assay: ROCK-2 Assay (33P-ATP FlashPlate kinase assay, biotinylated S6 peptide)
Type: biochemical
Conditions: hROCK-2 0.8 nM, 5 μM ATP, 1.5 μM biotinylated S6 peptide, room temperature, 60 min
Experimental: The reaction is stopped by addition of 150 μl of 0.1 M EDTA in Dulbecco's PBS. 170 μl from each well are loaded onto a FlashPlate (PerkinElmer) and incubated at room temperature for 30 min.

T1 sequence (O75116 whole entry): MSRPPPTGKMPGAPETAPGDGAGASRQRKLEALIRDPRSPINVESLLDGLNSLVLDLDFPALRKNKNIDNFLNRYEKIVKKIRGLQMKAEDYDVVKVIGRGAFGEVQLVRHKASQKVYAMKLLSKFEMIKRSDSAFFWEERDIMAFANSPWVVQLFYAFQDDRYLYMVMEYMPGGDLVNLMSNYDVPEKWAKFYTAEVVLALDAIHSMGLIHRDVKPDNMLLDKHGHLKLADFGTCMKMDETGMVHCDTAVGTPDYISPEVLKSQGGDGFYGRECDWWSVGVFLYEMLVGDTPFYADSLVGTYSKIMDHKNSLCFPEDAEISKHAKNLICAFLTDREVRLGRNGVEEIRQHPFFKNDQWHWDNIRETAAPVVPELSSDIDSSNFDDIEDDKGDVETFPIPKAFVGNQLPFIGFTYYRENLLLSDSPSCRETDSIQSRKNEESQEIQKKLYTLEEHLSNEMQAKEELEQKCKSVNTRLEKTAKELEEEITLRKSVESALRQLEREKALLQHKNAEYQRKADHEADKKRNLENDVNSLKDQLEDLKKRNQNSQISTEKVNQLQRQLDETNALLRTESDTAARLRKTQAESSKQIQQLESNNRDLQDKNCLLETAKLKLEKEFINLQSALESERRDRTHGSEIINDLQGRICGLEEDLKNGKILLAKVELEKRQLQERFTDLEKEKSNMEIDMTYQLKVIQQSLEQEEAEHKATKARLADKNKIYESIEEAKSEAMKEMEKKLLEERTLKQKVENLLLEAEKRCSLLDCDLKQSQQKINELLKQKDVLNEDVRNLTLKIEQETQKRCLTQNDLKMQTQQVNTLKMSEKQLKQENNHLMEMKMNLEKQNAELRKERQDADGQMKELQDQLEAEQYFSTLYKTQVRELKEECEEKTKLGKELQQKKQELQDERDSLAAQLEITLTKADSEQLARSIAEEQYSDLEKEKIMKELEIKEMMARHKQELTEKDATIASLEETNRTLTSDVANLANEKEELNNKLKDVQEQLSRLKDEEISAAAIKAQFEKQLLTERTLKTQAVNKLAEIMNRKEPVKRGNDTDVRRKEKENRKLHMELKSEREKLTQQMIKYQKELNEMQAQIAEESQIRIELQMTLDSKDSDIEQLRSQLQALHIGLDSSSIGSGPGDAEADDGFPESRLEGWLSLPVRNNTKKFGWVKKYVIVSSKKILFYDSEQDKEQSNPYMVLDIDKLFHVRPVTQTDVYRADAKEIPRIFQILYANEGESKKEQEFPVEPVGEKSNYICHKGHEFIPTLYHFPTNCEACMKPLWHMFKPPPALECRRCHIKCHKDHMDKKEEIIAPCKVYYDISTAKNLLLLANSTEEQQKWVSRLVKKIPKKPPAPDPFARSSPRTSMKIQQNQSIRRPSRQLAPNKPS

Row | pKi | SMILES
1 | > 7.30 | CC(NC(=O)c1ccc(-c2ccncc2)cc1)c1cccs1 (stereo not shown) [Example 72, 4-pyridin-4-yl-N—O-(2-thienyl)ethypenzamide]
2 | > 7.30 | COc1cccc([C@@H](C)NC(=O)c2ccc(-c3ccncc3)cc2C)c1 [Example 96, N—[(R)-1-(3-methoxy-phenyl)-ethyl]-2-methyl-4-pyridin-4-yl-benzamide]
3 | > 7.30 | COc1cccc([C@H](C)NC(=O)c2ccc(-c3ccncc3)c(C)c2)c1 [Example 102, N—[(S)-1-(3-methoxy-phenyl)-ethyl]-3-methyl-4-pyridin-4-yl-benzamide]
4 | > 7.30 | Cc1cnccc1-c1ccc(C(=O)N[C@H](C)c2cccc(C(F)(F)F)c2)cc1 [Example 181, 4-(3-methyl-pyridin-4-yl)-N—[(R)-1-(3-trifluoromethyl-phenyl)-ethyl]-benzamide]
5 | 6.30 to 7.30 | COc1ccccc1[C@@H](C)NC(=O)c1ccc(-c2ccncc2C)cc1 [Example 175, N—[(R)-1-(2-methoxy-phenyl)-ethyl]-4-(3-methyl-pyridin-4-yl)-benzamide]
6 | > 7.30 | COc1cccc([C@@H](C)NC(=O)c2ccc(-c3ccncc3)cc2OC)c1 [Example 103, 2-methoxy-N—[(R)-1-(3-methoxy-phenyl)-ethyl]-4-pyridin-4-yl-benzamide]
7 | > 7.30 | COc1cc(-c2ccncc2)ccc1C(=O)N[C@H](C)c1cccc2ccccc12 [Example 106, 2-methoxy-N—((R)-1-naphthalen-1-yl-ethyl)-4-pyridin-4-yl-benzamide]
8 | > 7.30 | CC(NC(=O)c1ccc(-c2ccncc2)cc1)c1cccc(OCc2ccccc2)c1 (stereo not shown) [Example 151, N-[1-(3-benzyloxy-phenyl)-ethyl]-4-pyridin-4-yl-benzamide]
9 | > 7.30 | C[C@@H](NC(=O)c1ccc(-c2ccncc2)cc1)c1ccc2ccccc2c1 [Example 91, N-[(1R)-1-(2-naphthyl)ethyl]-4-pyridin-4-ylbenzamide]
10 | > 7.30 | COc1cccc([C@@H](C)NC(=O)c2ccc(-c3ccncc3)c(OC)c2)c1 [Example 97, 3-methoxy-N—[(R)-1-(3-methoxy-phenyl)-ethyl]-4-pyridin-4-yl-benzamide]
11 | 6.30 to 7.30 | CC(NC(=O)c1ccc(-c2ccncc2)cc1)c1cccnc1 (stereo not shown) [Example 79, 4-pyridin-4-yl-N-(1-pyridin-3-ylethyl)benzamide]
12 | > 7.30 | COc1cccc([C@@H](C)NC(=O)c2ccc(-c3ccncc3F)cc2C)c1 [Example 246, 4-(3-fluoro-pyridin-4-yl)-N—[(R)-1-(3-methoxy-phenyl)-ethyl]-2-methyl-benzamide]
13 | > 7.30 | CCC(NC(=O)c1ccc(-c2ccncc2)cc1)c1ccccc1 (stereo not shown) [Example 75, N-(1-phenylpropyl)-4-pyridin-4-ylbenzamide]
14 | > 7.30 | COc1cccc([C@@H](C)NC(=O)c2ccc(-c3ccncc3)cc2F)c1 [Example 245, 2-fluoro-N—[(R)-1-(3-methoxy-phenyl)-ethyl]-4-pyridin-4-yl-benzamide]
15 | 6.30 to 7.30 | C[C@@H](NC(=O)c1ccc(-c2ccncc2)cc1)c1cc(C(F)(F)F)cc(C(F)(F)F)c1 [Example 89, N-{(1R)-1-[3,5-bis(trifluoromethyl)phenyl]ethyl}-4-pyridin-4-ylbenzamide]
16 | 6.30 to 7.30 | C[C@@H](NC(=O)c1ccc(-c2ccncc2)c(F)c1)c1ccc2ccccc2c1 [Example 229, 3-fluoro-N—((R)-1-naphthalen-2-yl-ethyl)-4-pyridin-4-yl-benzamide]
17 | 6.30 to 7.30 | O=C(N[C@@H](c1ccccc1)[C@H](O)c1ccccc1)c1ccc(-c2ccncc2)cc1 [Example 29, N-[(1S,2R)-2-hydroxy-1,2-diphenylethyl]-4-pyridin-4-ylbenzamide]
18 | > 7.30 | COc1cccc([C@@H](C)NC(=O)c2ccc(-c3cc(F)ncc3C)cc2)c1 [Example 248, 4-(2-fluoro-5-methyl-pyridin-4-yl)-N—[(R)-1-(3-methoxy-phenyl)-ethyl]-benzamide]
19 | > 7.30 | COC[C@@H](NC(=O)c1ccc(-c2ccncc2)cc1)c1ccccc1 [Example 188, N—((S)-2-methoxy-1-phenyl-ethyl)-4-pyridin-4-yl-benzamide]

Row | pKi | SMILES
20 | 6.30 to 7.30 | Cc1cnccc1-c1ccc(C(=O)NC2CCCc3ccccc32)cc1 (stereo not shown) [Example 160, 4-(3-methyl-pyridin-4-yl)-N-(1,2,3,4-tetrahydro-naphthalen-1-yl)-benzamide]
21 | > 7.30 | COc1cccc([C@@H](C)NC(=O)c2ccc(-c3ccncc3F)cc2OC)c1 [Example 247, 4-(3-fluoro-pyridin-4-yl)-2-methoxy-N—[(R)-1-(3-methoxy-phenyl)-ethyl]-benzamide]
22 | > 7.30 | COc1cccc([C@@H](C)NC(=O)c2ccc(-c3ccncc3)c(Cl)c2)c1 [Example 156, 3-Chloro-N—[(R)-1-(3-methoxy-phenyl)-ethyl]-4-pyridin-4-yl-benzamide]
23 | > 7.30 | CC(C)Oc1cccc(C(C)NC(=O)c2ccc(-c3ccncc3)cc2)c1 (stereo not shown) [Example 152, N-[1-(3-isopropoxy-phenyl)-ethyl]-4-pyridin-4-yl-benzamide]
24 | > 7.30 | O=C(NC(CN1CCOCC1)c1ccccc1)c1ccc(-c2ccncc2)cc1 (stereo not shown) [Example 32, N-(2-morpholin-4-yl-1-phenylethyl)-4-pyridin-4-ylbenzamide]
25 | > 7.30 | COc1cccc([C@@H](C)NC(=O)c2ccc(-c3ccncc3C)cc2)c1 [Example 101, N—[(R)-1-(3-Methoxy-phenyl)-ethyl]-4-(3-methyl-pyridin-4-yl)-benzamide]
26 | 6.30 to 7.30 | O=C(NC(c1ccccc1)c1ccc(Cl)cc1)c1ccc(-c2ccncc2)cc1 (stereo not shown) [Example 49, N-[(4-chlorophenyl)(phenyl)methyl]-4-pyridin-4-ylbenzamide]
27 | 6.30 to 7.30 | O=C(NC(c1ccccc1)[C@@H](O)c1ccccc1)c1ccc(-c2ccncc2)cc1 (stereo partly drawn) [Example 34, N-[(2S)-2-hydroxy-1,2-diphenylethyl]-4-pyridin-4-ylbenzamide]
28 | > 7.30 | C[C@@H](NC(=O)c1ccc(-c2ccncc2)c(F)c1)c1cccc2ccccc12 [Example 217, 3-fluoro-N—((R)-1-naphthalen-1-yl-ethyl)-4-pyridin-4-yl-benzamide]
29 | > 7.30 | COc1cc(-c2ccncc2)ccc1C(=O)NC(CO)c1cc(Cl)cc(Cl)c1 (stereo not shown) [Example 135, N-[1-(3,5-dichloro-phenyl)-2-hydroxy-ethyl]-2-methoxy-4-pyridin-4-ylbenzamide]
30 | 6.30 to 7.30 | Cc1cnccc1-c1ccc(C(=O)NC(CO)c2cc(Cl)cc(Cl)c2)cc1 (stereo not shown) [Example 185, N-[1-(3,5-dichloro-phenyl)-2-hydroxy-ethyl]-4-(3-methyl-pyridin-4-yl)-benzamide]
31 | 6.30 to 7.30 | CC(NC(=O)c1ccc(-c2ccncc2)cc1)c1ccco1 (stereo not shown) [Example 53]
32 | 6.30 to 7.30 | Cc1ccc(C(CO)NC(=O)c2ccc(-c3ccncc3)cc2)c(C)c1 (stereo not shown) [Example 40, N-[1-(2,4-dimethylphenyl)-2-hydroxyethyl]-4-pyridin-4-ylbenzamide]
33 | 6.30 to 7.30 | COCC(Cc1ccccc1)NC(=O)c1ccc(-c2ccncc2)cc1 (stereo not shown) [Example 16, N-(1-benzyl-2-methoxyethyl)-4-pyridin-4-ylbenzamide]
34 | > 7.30 | Cc1cnccc1-c1ccc(C(=O)N[C@H](C)c2ccc(F)cc2)cc1 [Example 180, N—[(R)-1-(4-fluoro-phenyl)-ethyl]-4-(3-methyl-pyridin-4-yl)-benzamide]
35 | > 7.30 | O=C(N[C@H](CO)Cc1ccccc1)c1ccc(-c2ccncc2)cc1 [Example 7, N-[(1S)-1-benzyl-2-hydroxyethyl]-4-pyridin-4-ylbenzamide]
36 | > 7.30 | O=C(NC(CN1CCCCC1)c1ccccc1)c1ccc(-c2ccncc2)cc1 (stereo not shown) [Example 36, N-(1-phenyl-2-piperidin-1-ylethyl)-4-pyridin-4-ylbenzamide]
37 | 6.30 to 7.30 | O=C(NC(Cc1ccccc1)c1ccccc1)c1ccc(-c2ccncc2)cc1 (stereo not shown) [Example 48, N-(1,2-diphenylethyl)-4-pyridin-4-ylbenzamide]
